How the values were obtained:
[1] = target: interaction between PD-1 and PD-L1 expressed on cell surfaces (Homo sapiens (Human), UniProt Q9NZQ7); assay: Jurkat reporter gene cellular assay (Jurkat/NF-κB-luc/PD1 cells cocultured with Raji-PD-L1 cells, OKT-3 stimulation); format: cell-based; conditions: NF-κB-luc reporter activation fold, 6 hrs; read-out: Cell Activity EC50
Summary of the method: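 EC50 comes from non-linear regression of activation fold (compound reading over DMSO reading) against concentration. Read-out was luciferase signal 6 h after OKT-3-stimulated coculture of PD-1/NF-κB-luc Jurkat cells with PD-L1-expressing Raji cells, 5*10^4 cells each per well.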

[2] = Pharmacokinetic assay in mice, per oral administration; format: in vivo; conditions: ICR mice
From the text: C. Pharmacokinetic Assay in Mice
The purpose of this study was to study the pharmacokinetic behaviors of some compounds of the present invention, and administration routes were: per oral administration (PO) to ICR mice:
The compounds used in this test came from the compounds of the specific examples of the present invention.
ICR mice male N=3 original source: Shanghai Sippr-BK Laboratory Animal Co. Ltd.
2.3 Preparation and Administration of Medicaments
The compounds were weighed, and dissolved in solvent of 0.5% SDS+0.5% CMCNa. The mixture solutions were mixed well by shaking and ultrasonic treatment to obtain colorless clear solutions. The solutions were orally administered to nine mice after an overnight fast. The dosage of administration was 10 mg/kg (or 30 mg/kg).
With about 90 μL/time point, blood was drawn from the submaxillary vein, and heparin sodium was added for anticoagulation. The blood samples were placed onto the ice, and were centrifuged (centrifugation conditions: 8000 r/min, 6 min, 2-8° C.) within 1 hr to obtain plasmas. The time points for blood sampling were at 0 hr, 0.25 hr, 0.5 hr, 1 hr, 2 hrs, 4 hrs, 6 hrs, 8 hrs and 24 hrs after administration. The samples were stored in a refrigerator at −20° C.
40 μL of plasma sample was added to 160 μL of cold acetonitrile containing an internal standard, and the mixture solution was vortexed for 3 min and centrifuged at 11,000 r/min for 5 min. 100 μL of supernate was taken and added to 100 μL of water, and 5 μL of the sample was taken and analyzed by LC/MS/MS. Only the original compounds were analyzed for examples 1, 3, 5, 8, 46 and 141 (for results, see table 2); and both the original compounds and possible products of ester hydrolysis, namely example 2, 27, 65 and 105, were analyzed for examples 4, 26, 64 and 104 (for results, see table 3).

[3] = target: interaction between PD-1 and PD-L1 (Homo sapiens (Human), UniProt Q9NZQ7); assay: PD1-PDL1 HTRF binding activity test (Cisbio PD-1/PD-L1 binding assay kit); conditions: read-out: PD1-PDL1 HTRF Binding Activity IC50
Sequence of interaction between PD-1 and PD-L1 (Q9NZQ7 19-238): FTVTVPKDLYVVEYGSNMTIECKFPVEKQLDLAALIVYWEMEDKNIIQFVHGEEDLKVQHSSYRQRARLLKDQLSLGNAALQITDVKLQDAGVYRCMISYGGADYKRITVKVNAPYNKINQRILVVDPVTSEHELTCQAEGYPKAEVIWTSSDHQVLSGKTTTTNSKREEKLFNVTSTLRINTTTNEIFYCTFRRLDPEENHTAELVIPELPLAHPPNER

Sequence of interaction between PD-1 and PD-L1 expressed on cell surfaces (Q9NZQ7 19-290): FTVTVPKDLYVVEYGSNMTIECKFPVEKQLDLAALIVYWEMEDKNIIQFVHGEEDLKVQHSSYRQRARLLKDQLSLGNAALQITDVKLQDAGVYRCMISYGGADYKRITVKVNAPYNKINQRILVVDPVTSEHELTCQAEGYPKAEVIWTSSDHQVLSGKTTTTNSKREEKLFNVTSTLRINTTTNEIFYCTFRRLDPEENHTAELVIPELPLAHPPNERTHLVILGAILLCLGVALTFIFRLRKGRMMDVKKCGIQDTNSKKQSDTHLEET

Row | EC50 [1] [nM] | Cmax ([2]; product of ester hydrolysis analyzed after PO 30 mg/kg of the ester (2 after 4, 27 after 26, 65 after 64)) | IC50 [3] [nM] | Cmax ([2]; Table 3, PO 10 mpk, original compound (ester 104) analyzed) | ester hydrolysis in the bodies of the mice after oral administration ([2]; oral administration) | Cmax ([2]; PO 10 mg/kg, plasma, original compound analyzed) | SMILES
1 | 132 | BQL | 0.12 | – | – | – | COc1cc(C(=O)Nc2cccc(-c3cccc(NC(=O)c4cc(OC)c(CN5CCCC[C@H]5C(=O)O)cn4)c3C)c2C)ncc1CN1CCCC[C@H]1C(=O)O [Example 65, (2S,2S)-1,1′-(((((2,2′-dimethyl-[1,1′-bipheny]-3,3′-diyl)bis(azanediyl))bis(carbonyl))bis(4-methoxypyridine-6,3-diyl))bis(methylene))bis(piperidine-2-carboxylic acid)]
2 | 296 | – | 1.57 | BQL | rapidly became corresponding acids | – | COC(=O)[C@@H](CO)NCc1cnc(C(=O)Nc2cccc(-c3cccc(NC(=O)c4cc(C5CC5)c(CN[C@H](CO)C(=O)OC)cn4)c3C)c2C)cc1C1CC1 [Example 104]
3 | 74 | – | 0.75 | – | – | BQL | COc1cc(C(=O)Nc2cccc(-c3cccc(NC(=O)c4cc(OC)c(CNCCO)cn4)c3Cl)c2C)ncc1CNCCO [Example 141, N,N′-(2-chloro-2′-methyl-[1,1′-biphenyl]-3,3′-diyl)bis(5-(((2-hydroxyethyl)amino)methyl)-4-methoxypicolinamide)]

From patent US11459339B2, “Biaryl derivative, preparation method thereof and pharmaceutical application thereof” (Abbisko Therapeutics Co., Ltd., priority 2018, dated 2022)
